pKi: −log10 of the molar value.
Legend:
[1] = molecular target: Sodium-dependent serotonin transporter (Homo sapiens) (UniProt P31645); assay: Displacement of [3H]imipramine recombinant human 5-HT transporter at 10 uM after 60 mins by radiometric scintillation analysis relative to control
[2] = Cmax in CD-1 mouse plasma at 5 mg/kg, ip measured up to 480 mins by LC/ESI-MS/MS analysis; assay type: ADME, organism-based; parameters: dose 5 mg/kg, route intraperitoneal
[3] = molecular target: Neuropeptide Y receptor type 2 (Homo sapiens) (UniProt P49146); assay: Displacement of [125I]peptide YY from human Y2 receptor at 10 uM after 60 mins by radiometric scintillation analysis relative to control
[4] = molecular target: Neuromedin-K receptor (Homo sapiens) (UniProt P29371); assay: Displacement of [3H]SR 142801 from recombinant human NK3 receptor at 10 uM after 120 mins by radiometric scintillation analysis relative to control
Sequence of Neuromedin-K receptor (Homo sapiens) (P29371 whole entry): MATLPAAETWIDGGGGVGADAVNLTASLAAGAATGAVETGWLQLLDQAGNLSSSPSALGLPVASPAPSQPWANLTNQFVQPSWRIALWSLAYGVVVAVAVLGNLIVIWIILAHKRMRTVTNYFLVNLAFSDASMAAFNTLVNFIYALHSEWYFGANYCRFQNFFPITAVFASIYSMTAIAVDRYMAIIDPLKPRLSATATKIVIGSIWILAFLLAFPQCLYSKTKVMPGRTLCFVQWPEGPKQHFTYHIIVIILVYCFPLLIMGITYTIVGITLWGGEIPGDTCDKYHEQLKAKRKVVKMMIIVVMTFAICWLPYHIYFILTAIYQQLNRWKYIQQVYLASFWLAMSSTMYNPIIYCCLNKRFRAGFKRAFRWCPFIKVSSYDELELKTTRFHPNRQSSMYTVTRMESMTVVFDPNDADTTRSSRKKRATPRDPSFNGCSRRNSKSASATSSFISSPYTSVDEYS

[5] = molecular target: Adenosine receptor A2a (Homo sapiens) (UniProt P29274); assay: Displacement of [3H]CGS 21680 from recombinant human A2A receptor at 10 uM after 120 mins by radiometric scintillation analysis relative to control
[6] = molecular target: C-C chemokine receptor type 1 (Homo sapiens) (UniProt P32246); assay: Displacement of [125I]MIP-1alpha from recombinant human CCR1 receptor at 10 uM after 120 mins by radiometric scintillation analysis relative to control
Sequence of C-C chemokine receptor type 1 (Homo sapiens) (P32246 whole entry): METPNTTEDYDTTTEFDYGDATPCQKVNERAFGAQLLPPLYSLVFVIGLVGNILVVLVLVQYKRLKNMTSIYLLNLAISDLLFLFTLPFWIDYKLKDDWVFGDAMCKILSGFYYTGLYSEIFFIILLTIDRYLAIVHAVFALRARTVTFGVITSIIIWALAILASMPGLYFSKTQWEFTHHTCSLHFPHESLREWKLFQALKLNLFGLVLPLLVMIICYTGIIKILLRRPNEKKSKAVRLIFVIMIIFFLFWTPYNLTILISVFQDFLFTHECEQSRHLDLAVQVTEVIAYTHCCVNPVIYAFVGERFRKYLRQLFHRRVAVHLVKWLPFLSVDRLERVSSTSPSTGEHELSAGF

Rattus norvegicus [7] = organism: Rattus norvegicus; assay: Displacement of [3H] TBPS from rat GABA gated chloride channel at 10 uM measured after 120 mins by scintillation counter method relative to control relative to control
[8] = Drug metabolism in mouse liver microsomes assessed as metabolite formation by measuring retention time at 20 uM after 30 to 60 mins in presence of NADP by UPLC/MS analysis; assay type: ADME, Microsome
[9] = molecular target: Histamine H2 receptor (Homo sapiens) (UniProt P25021); assay: Displacement of [125I]APT from recombinant human H2 histamine receptor at 10 uM after 120 mins by radiometric scintillation counting analysis relative to control
[10] = AUC (0 to total) in CD-1 mouse brain at 5 mg/kg, ip measured up to 480 mins by LC/ESI-MS/MS analysis; assay type: ADME, organism-based; settings: in vivo, 8 h
Rattus norvegicus [11] = organism: Rattus norvegicus; assay: Displacement of [3H]-Flumazenil from GABAA/BZD receptor in rat cortical membranes incubated for 60 mins by radioligand binding assay relative to control; assay type: cell membranes
[12] = Tmax in CD-1 mouse brain at 5 mg/kg, ip measured up to 480 mins by LC/ESI-MS/MS analysis; assay type: ADME, organism-based
[13] = molecular target: Histamine H1 receptor (Homo sapiens) (UniProt P35367); assay: Displacement of [3H]pyrilamine from recombinant human H1 histamine receptor at 10 uM after 60 mins by radiometric scintillation analysis relative to control
Sequence of Histamine H1 receptor (Homo sapiens) (P35367 whole entry): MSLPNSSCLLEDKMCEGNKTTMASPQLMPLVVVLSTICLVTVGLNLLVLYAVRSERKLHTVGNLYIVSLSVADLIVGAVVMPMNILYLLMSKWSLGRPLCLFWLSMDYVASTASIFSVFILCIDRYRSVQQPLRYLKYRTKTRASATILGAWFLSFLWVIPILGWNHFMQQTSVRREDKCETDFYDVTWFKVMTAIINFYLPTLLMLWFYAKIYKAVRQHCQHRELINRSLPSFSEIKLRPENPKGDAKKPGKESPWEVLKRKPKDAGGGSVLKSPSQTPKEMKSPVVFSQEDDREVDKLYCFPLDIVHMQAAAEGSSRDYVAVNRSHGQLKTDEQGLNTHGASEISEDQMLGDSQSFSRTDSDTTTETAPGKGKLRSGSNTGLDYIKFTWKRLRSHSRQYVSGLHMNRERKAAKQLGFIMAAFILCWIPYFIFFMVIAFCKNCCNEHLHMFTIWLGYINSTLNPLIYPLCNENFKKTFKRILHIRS

[14] = molecular target: T1, 5-hydroxytryptamine receptor 2A (Homo sapiens, UniProt P28223); assay: Displacement of [3H]ketanserin from recombinant human 5-HT2A receptor after 60 mins by radiometric scintillation analysis
T1 sequence (P28223 whole entry): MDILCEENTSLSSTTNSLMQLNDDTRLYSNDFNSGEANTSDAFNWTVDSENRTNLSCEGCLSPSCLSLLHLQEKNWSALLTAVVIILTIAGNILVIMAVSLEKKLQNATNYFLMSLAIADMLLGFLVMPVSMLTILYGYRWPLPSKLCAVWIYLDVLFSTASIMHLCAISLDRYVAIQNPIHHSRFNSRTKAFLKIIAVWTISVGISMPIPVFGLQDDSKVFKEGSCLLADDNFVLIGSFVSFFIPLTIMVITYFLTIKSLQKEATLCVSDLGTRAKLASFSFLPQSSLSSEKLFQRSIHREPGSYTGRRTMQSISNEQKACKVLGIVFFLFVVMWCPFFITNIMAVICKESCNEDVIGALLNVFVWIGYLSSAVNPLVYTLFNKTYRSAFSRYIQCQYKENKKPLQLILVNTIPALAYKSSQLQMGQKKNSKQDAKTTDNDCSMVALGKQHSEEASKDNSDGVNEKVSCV

[15] = Tmax in CD-1 mouse plasma at 5 mg/kg, ip measured up to 480 mins by LC/ESI-MS/MS analysis; assay type: ADME, organism-based
[16] = molecular target: L-type calcium channel (verapamil binding site) (Homo sapiens, UniProt O60840+Q01668+Q13698+Q13936); assay: Displacement of [3H] Diltiazem from human L-type calcium channel verapamil binding site at 10 uM after 20 hrs by scintillation analysis relative to control; assay type: protein assay; settings: probe [3H] Diltiazem
[17] = molecular target: Adenosine receptor A3 (Homo sapiens) (UniProt P0DMS8); assay: Displacement of [125I]AB-MECA from recombinant human A3 receptor at 10 uM after 120 mins by radiometric scintillation analysis relative to control
Sequence of Adenosine receptor A3 (Homo sapiens) (P0DMS8 whole entry): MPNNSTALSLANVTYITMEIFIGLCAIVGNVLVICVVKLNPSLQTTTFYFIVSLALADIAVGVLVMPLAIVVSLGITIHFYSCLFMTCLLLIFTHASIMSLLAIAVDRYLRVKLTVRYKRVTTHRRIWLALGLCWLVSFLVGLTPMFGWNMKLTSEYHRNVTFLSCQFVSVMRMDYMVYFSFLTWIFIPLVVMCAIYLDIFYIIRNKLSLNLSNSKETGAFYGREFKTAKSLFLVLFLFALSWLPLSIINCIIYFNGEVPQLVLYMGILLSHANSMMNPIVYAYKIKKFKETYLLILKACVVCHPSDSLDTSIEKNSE

Rattus norvegicus [18] = organism: Rattus norvegicus; assay: Displacement of [3H]GABA from rat brain GABA receptor at 10 uM after 30 mins by radiometric scintillation analysis relative to control
[19] = molecular target: Adrenergic receptor alpha-1 (Rattus norvegicus) (UniProt P15823+P23944+P43140); assay: Displacement of [3H]prazosin from rat brain alpha 1 receptor at 10 uM after 60 mins by radiometric scintillation analysis relative to control
[20] = Terminal half life in CD-1 mouse brain at 5 mg/kg, ip measured up to 480 mins by LC/ESI-MS/MS analysis; assay type: ADME, organism-based; settings: read-out: beta t1/2
[21] = molecular target: Vasopressin V1a receptor (Homo sapiens) (UniProt P37288); assay: Displacement of [3H]AVP recombinant human V1A receptor at 10 uM after 60 mins by radiometric scintillation analysis relative to control
Sequence of Vasopressin V1a receptor (Homo sapiens) (P37288 whole entry, looked up): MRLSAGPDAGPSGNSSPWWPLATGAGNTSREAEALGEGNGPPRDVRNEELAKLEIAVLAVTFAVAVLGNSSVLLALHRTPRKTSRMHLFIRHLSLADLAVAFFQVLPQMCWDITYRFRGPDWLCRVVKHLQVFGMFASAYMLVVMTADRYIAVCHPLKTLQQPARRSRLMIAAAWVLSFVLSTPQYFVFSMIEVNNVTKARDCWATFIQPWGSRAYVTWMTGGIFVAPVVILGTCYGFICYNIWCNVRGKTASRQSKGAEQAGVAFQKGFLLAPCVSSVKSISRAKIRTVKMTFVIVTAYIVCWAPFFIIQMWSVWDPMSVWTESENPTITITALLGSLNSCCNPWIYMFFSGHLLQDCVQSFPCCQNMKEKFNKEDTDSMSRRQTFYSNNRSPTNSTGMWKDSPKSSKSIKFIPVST

[22] = molecular target: Muscarinic acetylcholine receptor M2 (Homo sapiens) (UniProt P08172); assay: Displacement of [3H]AF-DX 384 from recombinant human M2 receptor at 10 uM after 60 mins by radiometric scintillation analysis relative to control
[23] = Mutagenicity in Salmonella typhimurium TA102 at 250 ug/plate preincubated for 20 mins followed by addition of top agar and measured after 48 hrs by Ames test; assay type: toxicity; settings: salmonella enterica subsp. enterica serovar typhimurium
[24] = molecular target: Substance-K receptor (Homo sapiens) (UniProt P21452); assay: Displacement of [125I]NKA from recombinant human NK2 receptor at 10 uM after 60 mins by radiometric scintillation analysis relative to control
Sequence of Substance-K receptor (Homo sapiens) (P21452 whole entry): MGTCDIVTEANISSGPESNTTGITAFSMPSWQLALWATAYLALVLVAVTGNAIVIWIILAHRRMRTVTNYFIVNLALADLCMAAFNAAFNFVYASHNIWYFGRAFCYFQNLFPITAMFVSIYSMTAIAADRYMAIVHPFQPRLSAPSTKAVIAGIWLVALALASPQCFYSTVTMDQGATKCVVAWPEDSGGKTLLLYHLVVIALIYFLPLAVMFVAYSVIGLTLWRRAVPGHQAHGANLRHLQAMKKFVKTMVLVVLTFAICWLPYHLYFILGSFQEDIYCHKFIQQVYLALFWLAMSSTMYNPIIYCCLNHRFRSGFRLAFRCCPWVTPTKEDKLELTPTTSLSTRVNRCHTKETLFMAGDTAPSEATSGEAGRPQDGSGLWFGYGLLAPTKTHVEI

[25] = molecular target: T1, 5-hydroxytryptamine receptor 2A; assay: Displacement of [3H]ketanserin from recombinant human 5-HT2A receptor at 10 uM after 60 mins by radiometric scintillation analysis relative to control
[26] = molecular target: Nociceptin receptor (Homo sapiens) (UniProt P41146); assay: Displacement of [3H]nociceptin from recombinant human ORL1 receptor at 10 uM after 60 mins by radiometric scintillation analysis relative to control
[27] = Mutagenicity in Salmonella typhimurium TA100 at 50 ug/plate preincubated for 20 mins followed by addition of top agar and measured after 48 hrs by Ames test; assay type: toxicity; settings: salmonella enterica subsp. enterica serovar typhimurium
[28] = molecular target: Endothelin-1 receptor (Homo sapiens) (UniProt P25101); assay: Displacement of [125I]endothelin-1 from recombinant human ETA receptor at 10 uM after 120 mins by radiometric scintillation analysis relative to control
Sequence of Endothelin-1 receptor (Homo sapiens) (P25101 whole entry): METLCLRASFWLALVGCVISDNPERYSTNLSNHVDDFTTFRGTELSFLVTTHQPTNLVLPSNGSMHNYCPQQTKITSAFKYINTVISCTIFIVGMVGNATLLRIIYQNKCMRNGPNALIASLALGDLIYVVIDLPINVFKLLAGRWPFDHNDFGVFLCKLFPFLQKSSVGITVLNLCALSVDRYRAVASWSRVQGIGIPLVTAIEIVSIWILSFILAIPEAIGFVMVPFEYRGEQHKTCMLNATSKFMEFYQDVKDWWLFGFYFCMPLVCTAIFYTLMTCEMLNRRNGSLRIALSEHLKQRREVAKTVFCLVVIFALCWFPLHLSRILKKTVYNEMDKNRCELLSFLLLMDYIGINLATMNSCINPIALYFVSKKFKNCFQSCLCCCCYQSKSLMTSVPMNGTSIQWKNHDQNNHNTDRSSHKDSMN

Mus musculus = assay: Anxiolytic activity in albino Swiss CD-1 mouse assessed as increase in number of punished crossings at 10 mg/kg, ip administered 30 mins prior to test by four-plate test relative to control; assay type: functional
[29] = Cmax in CD-1 mouse brain at 5 mg/kg, ip measured up to 480 mins by LC/ESI-MS/MS analysis; assay type: ADME, organism-based; parameters: dose 5 mg/kg, route intraperitoneal
[30] = molecular target: 5-hydroxytryptamine receptor 1B (Homo sapiens) (UniProt P28222); assay: Displacement of [3H]GR125743 from recombinant human 5-HT1B receptor at 10 uM after 60 mins by radiometric scintillation analysis relative to control
Sequence of 5-hydroxytryptamine receptor 1B (Homo sapiens) (P28222 whole entry): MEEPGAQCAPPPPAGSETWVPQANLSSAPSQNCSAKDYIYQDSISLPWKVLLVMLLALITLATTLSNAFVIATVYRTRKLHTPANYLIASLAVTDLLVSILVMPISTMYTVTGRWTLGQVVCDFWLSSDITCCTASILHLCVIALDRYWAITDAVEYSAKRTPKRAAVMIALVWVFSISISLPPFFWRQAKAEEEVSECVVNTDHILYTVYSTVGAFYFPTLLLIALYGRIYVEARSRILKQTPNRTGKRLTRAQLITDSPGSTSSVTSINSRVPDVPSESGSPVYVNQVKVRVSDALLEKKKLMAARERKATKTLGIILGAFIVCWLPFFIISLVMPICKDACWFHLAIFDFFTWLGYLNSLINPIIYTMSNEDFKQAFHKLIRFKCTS

[31] = Mutagenicity in Salmonella typhimurium TA100 at 100 ug/plate preincubated for 20 mins followed by addition of top agar and measured after 48 hrs by Ames test; assay type: toxicity; settings: salmonella enterica subsp. enterica serovar typhimurium
[32] = molecular target: Type-1 angiotensin II receptor (Homo sapiens) (UniProt P30556); assay: Displacement of [125I][Sar1,Ile8]-AT-II from recombinant human AT1 receptor at 10 uM after 120 mins by radiometric scintillation analysis relative to control
Sequence of Type-1 angiotensin II receptor (Homo sapiens) (P30556 whole entry): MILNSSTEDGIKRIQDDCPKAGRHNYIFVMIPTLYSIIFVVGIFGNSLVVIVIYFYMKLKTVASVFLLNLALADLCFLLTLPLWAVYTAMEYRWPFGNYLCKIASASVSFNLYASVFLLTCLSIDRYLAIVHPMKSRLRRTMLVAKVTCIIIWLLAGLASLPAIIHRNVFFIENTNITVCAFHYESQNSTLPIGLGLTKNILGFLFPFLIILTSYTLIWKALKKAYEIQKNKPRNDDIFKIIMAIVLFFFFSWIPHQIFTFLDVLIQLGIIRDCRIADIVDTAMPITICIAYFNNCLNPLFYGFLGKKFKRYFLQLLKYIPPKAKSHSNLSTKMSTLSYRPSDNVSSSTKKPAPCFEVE

Sequence of Sodium-dependent serotonin transporter (Homo sapiens) (P31645 whole entry, looked up): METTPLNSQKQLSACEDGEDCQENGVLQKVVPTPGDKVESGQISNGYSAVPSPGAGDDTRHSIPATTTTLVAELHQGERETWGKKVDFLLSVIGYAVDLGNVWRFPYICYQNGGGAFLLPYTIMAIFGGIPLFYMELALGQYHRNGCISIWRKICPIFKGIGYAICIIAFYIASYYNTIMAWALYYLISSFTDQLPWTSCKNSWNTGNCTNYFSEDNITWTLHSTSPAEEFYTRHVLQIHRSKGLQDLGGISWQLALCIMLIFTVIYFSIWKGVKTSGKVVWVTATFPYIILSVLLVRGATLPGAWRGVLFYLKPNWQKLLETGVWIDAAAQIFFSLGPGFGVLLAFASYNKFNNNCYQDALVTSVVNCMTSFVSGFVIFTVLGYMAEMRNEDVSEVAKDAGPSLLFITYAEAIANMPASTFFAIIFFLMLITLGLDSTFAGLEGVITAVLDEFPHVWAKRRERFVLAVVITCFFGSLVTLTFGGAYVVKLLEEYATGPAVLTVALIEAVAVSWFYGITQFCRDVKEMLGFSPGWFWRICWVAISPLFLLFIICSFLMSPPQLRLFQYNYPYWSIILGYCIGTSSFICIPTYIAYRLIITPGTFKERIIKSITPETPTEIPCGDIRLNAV

`Cl.Cl.O=c1c2cc(Cl)ccc2oc2ccc(CN3CCN(CCOCCO)CC3)cc12` showed an inhibition [1] of 24.8%, a Cmax [2] of 1920 ng/mL and an inhibition [3] of 3.1%. For the same molecule, the inhibition [4] was 3.2%, the inhibition [5] was 12.2% and the inhibition [6] was -3.1%. The inhibition (Rattus norvegicus [7]) was 5%, the Retention_time [8] was 4.49 min and the inhibition [9] was 10.3%. It also gave an AUCt [10] of 3227321 ng·min/g, an inhibition (Rattus norvegicus [11]) of 9.4% and a Tmax [12] of 30 min. For the same molecule, the inhibition [13] was 43.1%, the pKi [14] was 5.69 and the Tmax [15] was 15 min. It also gave an inhibition at 20 h, 10 µM [16] of 42.2%, an inhibition [17] of 42.9% and an inhibition (Rattus norvegicus [18]) of 11.7%. It also gave an inhibition [19] of 8.5%, a half-life [20] of 173 min and an inhibition [21] of -0.2%. It also gave an inhibition [22] of 35.9%, an Activity_index [23] of 1.28 and an inhibition [24] of 49.4%. For the same molecule, the inhibition [25] was 62.8%, the inhibition [26] was 6.5% and the Activity_index [27] was 0.64. For the same molecule, the inhibition [28] was 4.9%, the Activity (Mus musculus) was 50.1% and the Cmax [29] was 18600 ng/mL. The inhibition [30] was 32.7%, the Activity_index [31] was 0.45 and the inhibition [32] was 8.4%.
